Read-outs that look alike come from different tables or passages of the source.
What was measured:
[1] = tested on: Ba/F3_L858R/T790M/C797S cells; experiment: Ba/F3_L858R/T790M/C797S cell proliferation inhibition assay (CellTiter-Glo); format: cell-based
Outline: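 Ba/F3 cells engineered to carry EGFR L858R/T790M/C797S, seeded at 700 cells/well, exposed to serially diluted compound (0.1% DMSO final) for 72 h at 37 °C, 5% CO2. Viability read by CellTiter-Glo luminescence after 30 min at room temperature; IC50 from dose-response fit.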

EGFR WT (wild type EGFR) = EGFR WT (wild type EGFR) (Homo sapiens (Human), UniProt P00533); experiment: In vitro enzymatic TR-FRET (HTRF KinEASE-TK) kinase assay, EGFR WT; format: biochemical; settings: kinase activity, TR-FRET; read-out: EGFR (WT) IC50
Sequence of EGFR WT (wild type EGFR) (P00533 25-1210): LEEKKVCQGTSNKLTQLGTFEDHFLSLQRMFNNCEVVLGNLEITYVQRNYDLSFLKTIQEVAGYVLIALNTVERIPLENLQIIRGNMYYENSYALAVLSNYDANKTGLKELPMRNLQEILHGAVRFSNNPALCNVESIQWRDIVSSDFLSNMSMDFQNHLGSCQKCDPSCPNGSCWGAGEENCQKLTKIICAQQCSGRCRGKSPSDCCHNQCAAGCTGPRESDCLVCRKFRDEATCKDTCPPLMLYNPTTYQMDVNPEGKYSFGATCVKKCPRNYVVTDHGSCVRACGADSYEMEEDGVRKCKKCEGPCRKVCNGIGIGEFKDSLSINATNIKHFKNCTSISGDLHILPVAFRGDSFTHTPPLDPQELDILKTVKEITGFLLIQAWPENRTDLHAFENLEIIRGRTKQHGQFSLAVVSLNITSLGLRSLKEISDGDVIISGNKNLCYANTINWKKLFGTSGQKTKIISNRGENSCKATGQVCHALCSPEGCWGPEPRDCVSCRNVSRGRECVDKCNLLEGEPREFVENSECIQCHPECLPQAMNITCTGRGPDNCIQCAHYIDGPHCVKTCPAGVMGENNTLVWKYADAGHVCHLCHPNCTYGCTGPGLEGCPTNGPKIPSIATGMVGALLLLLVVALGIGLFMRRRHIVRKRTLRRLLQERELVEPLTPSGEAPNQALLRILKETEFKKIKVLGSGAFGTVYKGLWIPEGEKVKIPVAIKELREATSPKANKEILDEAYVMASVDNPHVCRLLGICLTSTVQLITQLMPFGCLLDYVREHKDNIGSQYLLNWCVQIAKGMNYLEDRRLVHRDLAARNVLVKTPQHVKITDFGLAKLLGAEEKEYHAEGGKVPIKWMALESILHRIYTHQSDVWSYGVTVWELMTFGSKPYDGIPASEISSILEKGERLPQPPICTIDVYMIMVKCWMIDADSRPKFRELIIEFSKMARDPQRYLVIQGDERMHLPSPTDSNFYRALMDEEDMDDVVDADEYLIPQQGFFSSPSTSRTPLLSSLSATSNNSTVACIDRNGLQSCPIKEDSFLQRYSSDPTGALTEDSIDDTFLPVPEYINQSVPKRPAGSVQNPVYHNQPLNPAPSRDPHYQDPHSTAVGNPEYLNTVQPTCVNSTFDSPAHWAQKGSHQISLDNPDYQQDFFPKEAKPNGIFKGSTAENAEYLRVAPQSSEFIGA
Outline: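 Recombinant enzyme preincubated with compound 10 min at room temperature in kinase buffer with 5 mM MgCl2, 1 mM MnCl2, 1 mM DTT. Biotinylated TK substrate plus ATP then added for 40 min. HTRF detection (Sa-XL665, Cryptate antibody) for 1 h; IC50 from 665/615 nm ratio.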

A431 cells (EGFR WT) = experiment: A431 cell proliferation inhibition assay (CellTiter-Glo); format: cell-based
Outline: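 Seeded cells grown 24 h, then exposed 72 h (37° C, 5% CO2) to graded compound dilutions at 0.1% DMSO final. Viability read by CellTiter-Glo luminescence after 30 min at room temperature; IC50 fitted from the dose curve.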

EGFR L858R/T790M/C797S = EGFR L858R/T790M/C797S (Homo sapiens (Human), UniProt P00533, C797S/L858R/T790M); experiment: In vitro enzymatic TR-FRET (HTRF KinEASE-TK) kinase assay, EGFR L858R/T790M/C797S; format: biochemical; settings: kinase activity
Sequence of EGFR L858R/T790M/C797S (P00533 25-1210 T790M/C797S/L858R): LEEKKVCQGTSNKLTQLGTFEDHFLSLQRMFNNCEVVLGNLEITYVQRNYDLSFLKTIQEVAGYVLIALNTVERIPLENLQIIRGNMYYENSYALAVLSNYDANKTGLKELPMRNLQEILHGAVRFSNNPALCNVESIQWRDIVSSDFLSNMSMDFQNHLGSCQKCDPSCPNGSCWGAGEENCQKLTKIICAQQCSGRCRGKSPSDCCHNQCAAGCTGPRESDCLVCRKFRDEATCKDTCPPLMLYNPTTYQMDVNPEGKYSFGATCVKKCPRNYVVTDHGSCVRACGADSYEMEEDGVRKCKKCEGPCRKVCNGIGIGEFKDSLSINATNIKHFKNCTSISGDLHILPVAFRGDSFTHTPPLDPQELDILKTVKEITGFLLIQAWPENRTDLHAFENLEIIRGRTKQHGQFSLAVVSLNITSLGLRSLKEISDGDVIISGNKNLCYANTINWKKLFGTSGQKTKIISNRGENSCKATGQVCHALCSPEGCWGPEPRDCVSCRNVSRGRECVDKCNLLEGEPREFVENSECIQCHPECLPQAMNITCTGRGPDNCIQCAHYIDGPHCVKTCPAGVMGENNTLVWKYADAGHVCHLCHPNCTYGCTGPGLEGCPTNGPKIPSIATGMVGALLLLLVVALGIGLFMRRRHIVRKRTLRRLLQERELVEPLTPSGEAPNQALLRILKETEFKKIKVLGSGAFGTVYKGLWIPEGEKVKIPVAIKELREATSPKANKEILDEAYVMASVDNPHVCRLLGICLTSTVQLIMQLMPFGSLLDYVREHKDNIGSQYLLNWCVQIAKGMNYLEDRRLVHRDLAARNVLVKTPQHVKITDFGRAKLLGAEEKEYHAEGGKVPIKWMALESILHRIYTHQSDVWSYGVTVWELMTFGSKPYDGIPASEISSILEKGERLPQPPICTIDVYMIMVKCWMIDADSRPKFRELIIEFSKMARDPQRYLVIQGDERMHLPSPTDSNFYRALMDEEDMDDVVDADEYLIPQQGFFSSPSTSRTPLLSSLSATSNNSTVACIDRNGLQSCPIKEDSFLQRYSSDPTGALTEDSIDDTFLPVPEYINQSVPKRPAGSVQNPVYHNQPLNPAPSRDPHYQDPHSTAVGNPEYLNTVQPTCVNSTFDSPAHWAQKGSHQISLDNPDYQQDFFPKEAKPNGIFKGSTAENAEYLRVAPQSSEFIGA
Method: (I) In Vitro Enzymatic Experiment for EGFR WT and EGFR L858R/T790M/C797S
In the assay, the inhibition effect of the compound on the kinase activity of EGFR WT (wild type EGFR) and EGFR L858R/T790M/C797S was tested by adopting a time-resolved fluorescence resonance energy transfer (TR-FRET) method, and half maximal inhibitory concentration IC50 of the compound on the kinase activity of EGFR was obtained.
EGFR recombinase and EGFR L858R/T790M/C797S recombinase, purchased from Signalchem.
HTRF KinEASE-TK kit, purchased from Cisbio.
DTT, MnCl2, and MgCl2, purchased from Sigma.
ATP, purchased from Promega.
Brigatinib, purchased from Selleck.
1) 1× working solution was prepared: 5 mM MgCl2; 1 mM DTT; 1 mM MnCl2 and 1× kinase buffer (in kit).
2) […] of gradiently-diluted compound was transferred to a 384-well plate using Echo 550 (Labcyte).
3) 5 μL of 2× EGFR WT or EGFR L858R/T790M/C797S recombinase solution was added to the 384-well plate, and the plate was incubated at room temperature for 10 min.
4) 5 μL of 2× TK-substrate-biotin substrate solution (containing ATP) was added to the 384-well plate, and the plate was incubated at room temperature for 40 min.
5) 5 μL of assay solution containing Sa-XL 665 HTRF and 5 μL of TK-antibody-Cryptatewas were added to the plate, and the plate was incubated at room temperature for 1 h.
6) The fluorescence signal values at 615 nm and 665 nm were measured for each well using an Envision microplate reader (PerkinElmer).
7) The ratio of fluorescence signal values at 665 nm and 615 nm was calculated for each well.
8) Data analysis was performed using GraphPad Prism software to give the IC50 for compounds.

[2] = tested on: Ba/F3_Del19/T790M/C797S cells; experiment: Ba/F3_Del19/T790M/C797S cell proliferation inhibition assay (CellTiter-Glo); format: cell-based
Outline: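 Ba/F3 cells carrying EGFR Del19/T790M/C797S were seeded at 700 cells/well and exposed to serially diluted compound (0.1% DMSO final) for 72 h at 37° C. Viability was read by CellTiter-Glo luminescence to give IC50.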

[3] = Mus musculus, BaF3, cell proliferation, 72 h, CellTiter-Glo, read-out: Ba/F3 (L858R/T790M/C797S) IC50
[4] = Homo sapiens, A-431, cell proliferation, 72 h, CellTiter-Glo, read-out: A431 EGFR WT IC50
[5] = Mus musculus, BaF3, cell proliferation, 72 h, CellTiter-Glo, read-out: Ba/F3 (Del19/T790M/C797S) IC50
[6] = Mus musculus, BaF3, 72 h, read-out: Ba/F3 (L858R/T790M/C797S) IC50(nM)
[7] = Homo sapiens, A-431, 72 h, read-out: A431 EGFR WT IC50(nM)
[8] = Mus musculus, BaF3, 72 h, read-out: Ba/F3 (Del19/T790M/C797S) IC50(nM)
[9] = cell proliferation, 72 h, CellTiter-Glo, read-out: Ba/F3 (L858R/T790M/C797S) IC50
[10] = cell proliferation, 72 h, CellTiter-Glo, read-out: A431 EGFR WT IC50
[11] = cell proliferation, 72 h, CellTiter-Glo, read-out: Ba/F3 (Del19/T790M/C797S) IC50

| IC50 [1, 3] | IC50 (EGFR WT (wild type EGFR)) | IC50 (A431 cells (EGFR WT); [4]) | IC50 (EGFR L858R/T790M/C797S) | IC50 [2, 5] | IC50 [1, 9] | IC50 (A431 cells (EGFR WT); [10]) | IC50 [2, 11] | Structure (SMILES) | IC50 [1, 6] | IC50 (A431 cells (EGFR WT); [7]) | IC50 [2, 8] |
| --- | --- | --- | --- | --- | --- | --- | --- | --- | --- | --- | --- |
| 10 to 50 nM | 50 to 100 nM | 100 to 1000 nM | 1 to 10 nM | 10 to 50 nM | – | – | – | COc1cc2c(cc1Nc1ncc(Br)c(Nc3ccccc3P(C)(C)=O)n1)-c1cccnc1CCN2C [Compound 99] | – | – | – |
| 10 to 50 nM | < 1 nM | 100 to 1000 nM | < 1 nM | < 10 nM | – | – | – | COc1cc2c(cc1Nc1ncc(Br)c(Nc3ccc4nccnc4c3NS(C)(=O)=O)n1)-c1cnn(C)c1CCN2C [Compound 35] | – | – | – |
| 10 to 50 nM | 10 to 50 nM | 100 to 1000 nM | 1 to 10 nM | 10 to 50 nM | – | – | – | COc1cc2c(cc1Nc1ncc(Br)c(Nc3ccc4nccnc4c3N3CCCS3(=O)=O)n1)-c1cnn(C)c1CCN2C(C)C [Compound 118] | – | – | – |
| 10 to 50 nM | 50 to 100 nM | > 1000 nM | 1 to 10 nM | 10 to 50 nM | – | – | – | COc1ccc(Cn2ncc3c2CCN(C)c2cc(OC)c(Nc4ncc(Br)c(Nc5ccccc5P(C)(C)=O)n4)cc2-3)cc1 [Compound 34] | – | – | – |
| < 10 nM | < 1 nM | 100 to 1000 nM | < 1 nM | < 10 nM | – | – | – | COc1nc2c(cc1Nc1ncc(Br)c(Nc3ccc4nccnc4c3NS(C)(=O)=O)n1)-c1cnn(C)c1CCN2C [Compound 107] | – | – | – |
| < 10 nM | 1 to 10 nM | 100 to 1000 nM | < 1 nM | < 10 nM | – | – | – | COc1nc2c(cc1Nc1ncc(Br)c(Nc3ccc4nccnc4c3P(C)(C)=O)n1)-c1cnn(C)c1CCN2C [Compound 80] | – | – | – |
| 10 to 50 nM | 10 to 50 nM | 100 to 1000 nM | < 1 nM | < 10 nM | – | – | – | COc1cc2c(cc1Nc1ncc(Br)c(Nc3ccc4nccnc4c3P(C)(C)=O)n1)-c1cccnc1CCN2C [Compound 108] | – | – | – |
| 50 to 100 nM | 50 to 100 nM | 100 to 1000 nM | 1 to 10 nM | 10 to 50 nM | – | – | – | COc1ccc(CN2Cc3cc(OC)c(Nc4ncc(Br)c(Nc5ccc6nccnc6c5P(C)(C)=O)n4)cc3-c3cnn(C)c3C2)c(OC)c1 [Compound 57] | – | – | – |
| < 10 nM | < 1 nM | 50 to 100 nM | < 1 nM | < 10 nM | – | – | – | COc1cc2c(cc1Nc1ncc(C)c(Nc3ccc4nccnc4c3P(C)(C)=O)n1)-c1cnn(C)c1CCN2C [Compound 5] | – | – | – |
| 10 to 50 nM | 1 to 10 nM | 100 to 1000 nM | < 1 nM | < 10 nM | – | – | – | COc1cc2c(cc1Nc1ncc(Br)c(Nc3cccnc3P(C)(C)=O)n1)-c1cnn(C)c1CCN2C(C)C [Compound 83] | – | – | – |
| – | < 1 nM | – | < 1 nM | – | < 10 nM | 50 to 100 nM | < 10 nM | COc1cc2c(cc1Nc1ncc(Br)c(Nc3ccc4nccnc4c3P(C)(C)=O)n1)-c1cnn(C)c1CCN2C1CCN(C)C[C@@H]1F (some centres unmarked) [Compound 68] | – | – | – |

The next lines start with the compound.

| Structure (SMILES) | IC50 [1, 3] | IC50 (EGFR WT (wild type EGFR)) | IC50 (A431 cells (EGFR WT); [4]) | IC50 (EGFR L858R/T790M/C797S) | IC50 [2, 5] | IC50 [1, 9] | IC50 (A431 cells (EGFR WT); [10]) | IC50 [2, 11] | IC50 [1, 6] | IC50 (A431 cells (EGFR WT); [7]) | IC50 [2, 8] |
| --- | --- | --- | --- | --- | --- | --- | --- | --- | --- | --- | --- |
| COc1nc2c(cc1Nc1ncc(Br)c(Nc3ccc4nccnc4c3P(C)(C)=O)n1)-c1cnn(C)c1CCN2C(C)C [Compound 82] | – | 1 to 10 nM | – | 1 to 10 nM | – | – | – | – | 10 to 50 nM | > 1000 nM | 10 to 50 nM |
| COc1cc2c(cc1Nc1nccc(Nc3ccccc3P(C)(C)=O)n1)-c1cnn(C)c1CCN2C [Compound 22] | 100 to 1000 nM | 10 to 50 nM | > 1000 nM | 1 to 10 nM | 10 to 50 nM | – | – | – | – | – | – |
| CCN(c1c(Nc2nc(Nc3cc4c(cc3OC)N(C(C)C)CCc3c-4cnn3C)ncc2Br)ccc2nccnc12)S(C)(=O)=O [Compound 134] | – | 10 to 50 nM | – | 1 to 10 nM | – | – | – | – | 10 to 50 nM | 100 to 1000 nM | < 10 nM |
| COc1cc2c(cc1Nc1ncc(Br)c(Nc3ccccc3P(C)(C)=O)n1)-c1cnn(C)c1CCN2[C@@H]1CCN(C)C[C@H]1F (single isomer, unassigned) [Compound 66A] | – | 1 to 10 nM | – | < 1 nM | – | 10 to 50 nM | 100 to 1000 nM | < 10 nM | – | – | – |
| COc1cc2c(cc1Nc1ncc(Br)c(Nc3ccc4nccnc4c3NS(C)(=O)=O)n1)-c1cnn(C)c1CCN2C1CCC1 [Compound 135] | – | 1 to 10 nM | – | 1 to 10 nM | – | – | – | – | < 10 nM | 100 to 1000 nM | < 10 nM |
| COc1cc2c(cc1Nc1ncc(Br)c(Nc3ccc4nccnc4c3NS(C)(=O)=O)n1)-c1cnn(C)c1CCN2C1CCOCC1 [Compound 130] | < 10 nM | 1 to 10 nM | 100 to 1000 nM | < 1 nM | < 10 nM | – | – | – | – | – | – |
| COc1cc2c(cc1Nc1ncc(Br)c(Nc3ccccc3P(C)(C)=O)n1)-c1cnn(C3COC3)c1CCN2C(C)C [Compound 77A] | – | 1 to 10 nM | – | < 1 nM | – | 10 to 50 nM | 100 to 1000 nM | < 10 nM | – | – | – |
| COc1cc2c(cc1Nc1ncc(Br)c(Nc3ccccc3P(C)(C)=O)n1)-c1cnn(C)c1CCC2N(C)C (centres unmarked) [Compound 78] | 10 to 50 nM | 1 to 10 nM | 100 to 1000 nM | < 1 nM | < 10 nM | – | – | – | – | – | – |
| COc1cc2c(cc1Nc1ncc(Cl)c(Nc3ccccc3P(C)(C)=O)n1)-c1cnn(C)c1CCN2C(C)C [Compound 45] | 10 to 50 nM | 1 to 10 nM | 100 to 1000 nM | < 1 nM | < 10 nM | – | – | – | – | – | – |
| COc1cc2c(cc1Nc1ncc(Br)c(Nc3ccccc3NS(C)(=O)=O)n1)-c1cnn(C)c1CCN2 [Compound 121] | – | 100 to 1000 nM | – | 1 to 10 nM | – | – | – | – | < 10 nM | 100 to 1000 nM | < 10 nM |
| Cc1cnc(Nc2cc3c(cc2OC(C)C)N(C)CCc2c-3cnn2C)nc1Nc1ccccc1P(C)(C)=O [Compound 18] | 100 to 1000 nM | 50 to 100 nM | > 1000 nM | 1 to 10 nM | 50 to 100 nM | – | – | – | – | – | – |

Source: patent publication US20240034743A9, “TRICYCLIC COMPOUNDS AS EGFR INHIBITORS” (QILU PHARMACEUTICAL CO., LTD., priority 2020, published 2024)
